Measurements reported in US20260365682A1, “MODULATORS OF TNF-ALPHA ACTIVITY” (Forward Therapeutics, Inc., priority 2022, published 2026).

Target: T1, TNF-α (Homo sapiens, UniProt P01375)
T1 construct: purchased R&D 210-TA-020/CF
Test: TNF-α Induced HEK Blue Cellular Assay (secreted alkaline phosphatase expression, QUANTI-Blue)
Assay type: cell-based
Details: HEK Blue TNFα reporter cells; TNF-α 100 μg/ml; 24 hrs at 37° C.; inhibition of secreted alkaline phosphatase; read-out: IC50 value
Procedure: TNF-α Induced HEK Blue Cellular Assay
Test articles were diluted in DMSO and serially diluted into 384 well assay plate (Corning 3765), at final concentrations ranging from […] to 0.5 nM. HEK Blue™ TNFα reporter cells were added at a final density of 10,000 cell per well in assay media [DMEM (Gibco, cat #21063-029), 10% fetal bovine serum (ExcelBio, cat #FND500), 1% Penicillin-Streptomycin (Solarbio, cat #P1400-100]. TNF-α (R&D 210-TA-020/CF) was then added to the assay plate at a final concentration of […]. This plate was then incubated for 24 hrs at 37° C. and 5% CO2. Secreted alkaline phosphatase expression was then measured using QUANTI-Blue™ (Invivogen), according to manufacturer instructions and read on an Envision microplate reader at 620 nm.
Inhibition data for test compound over a range of concentration was plotted as percentage inhibition of the test compound (100%=maximum inhibition). IC50 values were determined after correcting for background [(sample read-mean of low control)/(mean of high control-mean of low control)] whereby the low control is DMSO without stimulation and high control is DMSO with stimulation. The IC50 is defined as the concentration of test compound which produces 50% inhibition and was quantified using the 4 parameter logistic equation to fit the data.

T1 sequence (P01375 77-233 limits assumed): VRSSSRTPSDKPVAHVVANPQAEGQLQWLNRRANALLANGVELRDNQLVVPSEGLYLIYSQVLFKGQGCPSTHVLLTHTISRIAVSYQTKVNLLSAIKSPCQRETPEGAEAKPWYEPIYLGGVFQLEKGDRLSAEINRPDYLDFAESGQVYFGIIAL

SMILES: [2H]C([2H])([2H])N1C(=O)c2cccc(OC(F)F)c2[C@H]2C[C@@H]1c1nc3ccc(C#CCCN4CC[C@@H](F)C4)cc3n12 [Example 227, (7R,14R)-1-(difluoromethoxy)-11-(4-((R)-3-fluoropyrrolidin-1-yl)but-1-yn-1-yl)-6-(methyl-d3)-6,7-dihydro-7,14-methanobenzo[f]benzo[4,5]imidazo[1,2-a][1,4]diazocin-5(14H)-one]
- IC50: < 100 nM

SMILES: [2H]C([2H])([2H])N1C(=O)c2cccc(OC(F)F)c2[C@H]2C[C@@H]1c1nc3ccc(C#CC(O)C(F)(F)F)cc3n12 (single isomer, unassigned) [Example 199, (7R,14R)-1-(difluoromethoxy)-6-(methyl-d3)-11-((R or S)-4,4,4-trifluoro-3-hydroxybut-1-yn-1-yl)-6,7-dihydro-7,14-methanobenzo[f]benzo[4,5]imidazo[1,2-a][1,4]diazocin-5(14H)-one]
- IC50: 100 to 1000 nM

SMILES: [2H]C([2H])([2H])N1C(=O)c2cccc(OC(F)F)c2[C@H]2C[C@@H]1c1nc3ccc(C#CCN4CC[C@@H](F)C4)cc3n12 [Example 236, (7R,14R)-1-(difluoromethoxy)-11-(3-((R)-3-fluoropyrrolidin-1-yl)prop-1-yn-1-yl)-6-(methyl-d3)-6,7-dihydro-7,14-methanobenzo[f]benzo[4,5]imidazo[1,2-a][1,4]diazocin-5(14H)-one]
- IC50: < 100 nM

SMILES: [2H]C([2H])([2H])N1C(=O)c2cccc(OC(F)F)c2[C@H]2C[C@@H]1c1nc3ccc(C#CC4(C)CCN(C(=O)C5CC5)CC4)cc3n12 [Example 181, (7R,14R)-11-((1-(cyclopropanecarbonyl)-4-methylpiperidin-4-yl)ethynyl)-1-(difluoromethoxy)-6-(methyl-d3)-6,7-dihydro-7,14-methanobenzo[f]benzo[4,5]imidazo[1,2-a][1,4]diazocin-5(14H)-one]
- IC50: 10000 to 30000 nM

SMILES: [2H]C([2H])([2H])N1C(=O)c2cccc(OC(F)F)c2[C@H]2C[C@@H]1c1nc3ccc(C#CCCOC(F)F)cc3n12 [Example 103, (7R,14R)-1-(difluoromethoxy)-11-(4-(difluoromethoxy)but-1-yn-1-yl)-6-(methyl-d3)-6,7-dihydro-7,14-methanobenzo[f]benzo[4,5]imidazo[1,2-a][1,4]diazocin-5(14H)-one]
- IC50: < 100 nM

SMILES: [2H]C([2H])([2H])N1C(=O)c2cccc(OC(F)F)c2[C@H]2C[C@@H]1c1nc3ccc(C#CC4CCN(C(C)=O)CC4)cc3n12 [Example 173, (7R,14R)-11-((1-acetylpiperidin-4-yl)ethynyl)-1-(difluoromethoxy)-6-(methyl-d3)-6,7-dihydro-7,14-methanobenzo[f]benzo[4,5]imidazo[1,2-a][1,4]diazocin-5(14H)-one]
- IC50: < 100 nM

SMILES: [2H]C([2H])([2H])N1C(=O)c2cccc(OC(F)F)c2[C@H]2C[C@@H]1c1nc3ccc(C#CCN4CC(F)(F)C4)cc3n12 [Example 231, (7R,14R)-11-(3-(3,3-difluoroazetidin-1-yl)prop-1-yn-1-yl)-1-(difluoromethoxy)-6-(methyl-d3)-6,7-dihydro-7,14-methanobenzo[f]benzo[4,5]imidazo[1,2-a][1,4]diazocin-5(14H)-one]
- IC50: < 100 nM

SMILES: [2H]C([2H])([2H])N1C(=O)c2cccc(OC(F)F)c2[C@H]2C[C@@H]1c1nc3ccc(C#CCCC(=O)O)cc3n12 [Example 104, 5-((7R,14R)-1-(difluoromethoxy)-6-(methyl-d3)-5-oxo-5,6,7,14-tetrahydro-7,14-methanobenzo[f]benzo[4,5]imidazo[1,2-a][1,4]diazocin-11-yl)pent-4-ynoic Acid]
- IC50: 10000 to 30000 nM

SMILES: [2H]C([2H])([2H])N1C(=O)c2cccc(OC(F)F)c2[C@H]2C[C@@H]1c1nc3ccc(C#C[C@H](C)N)cc3n12 [Example 51, (7R,14R)-11-((S)-3-aminobut-1-yn-1-yl)-1-(difluoromethoxy)-6-(methyl-d3)-6,7-dihydro-7,14-methanobenzo[f]benzo[4,5]imidazo[1,2-a][1,4]diazocin-5(14H)-one]
- IC50: < 100 nM

SMILES: O=C1N[C@@H]2C[C@H](c3c(OC(F)F)cccc31)n1c2nc2ccc(C#Cc3cncnc3)cc21 [Example 3, (1R,11R)-18-(difluoromethoxy)-5-[2-(pyrimidin-5-yl)ethynyl]-2,9,12-triazapentacyclo[9.8.1.0^∧{2,10}.0^∧{3,8}. 0^∧{14,19}]icosa-3(8),4,6,9,14(19),15,17-heptaen-13-one]
- IC50: < 100 nM

SMILES: [2H]C([2H])([2H])N1C(=O)c2cccc(OC(F)F)c2[C@H]2C[C@@H]1c1nc3ccc(C#CC4(C)CCN(C(=O)C5CC5)C4)cc3n12 (stereo partly drawn) [Example 189, (7R,14R)-11-((1-(cyclopropanecarbonyl)-3-methylpyrrolidin-3-yl)ethynyl)-1-(difluoromethoxy)-6-(methyl-d3)-6,7-dihydro-7,14-methanobenzo[f]benzo[4,5]imidazo[1,2-a][1,4]diazocin-5(14H)-one]
- IC50: 10000 to 30000 nM

SMILES: [2H]C([2H])([2H])N1C(=O)c2cccc(OC(F)F)c2[C@H]2C[C@@H]1c1nc3ccc(C#CCCCNC)cc3n12 [Example 153, (7R,14R)-1-(difluoromethoxy)-6-(methyl-d3)-11-(5-(methylamino)pent-1-yn-1-yl)-6,7-dihydro-7,14-methanobenzo[f]benzo[4,5]imidazo[1,2-a][1,4]diazocin-5(14H)-one]
- IC50: 100 to 1000 nM

SMILES: [2H]C([2H])([2H])N1C(=O)c2cccc(OC(F)F)c2[C@H]2C[C@@H]1c1nc3ccc(C#CC4CN(C(=O)C5(C)CC5)C4)cc3n12 [Example 166, (7R,14R)-1-(difluoromethoxy)-6-(methyl-d3)-11-((1-(1-methylcyclopropane-1-carbonyl)azetidin-3-yl)ethynyl)-6,7-dihydro-7,14-methanobenzo[f]benzo[4,5]imidazo[1,2-a][1,4]diazocin-5(14H)-one]
- IC50: < 100 nM

SMILES: [2H]C([2H])([2H])N1C(=O)c2cccc(OC(F)F)c2[C@H]2C[C@@H]1c1nc3ccc(C#CC4CCN(C)C4)cc3n12 (stereo partly drawn) [Example 76, (7R,14R)-1-(difluoromethoxy)-6-(methyl-d3)-11-((1-methylpyrrolidin-3-yl)ethynyl)-6,7-dihydro-7,14-methanobenzo[f]benzo[4,5]imidazo[1,2-a][1,4]diazocin-5(14H)-one]
- IC50: < 100 nM

SMILES: [2H]C([2H])([2H])N1C(=O)c2cccc(OC(F)F)c2[C@H]2C[C@@H]1c1nc3ccc(C#CC4(C)CN(C(=O)C(C)(C)C#N)C4)cc3n12 [Example 157, 3-(3-(((7R,14R)-1-(difluoromethoxy)-6-(methyl-d3)-5-oxo-5,6,7,14-tetrahydro-7,14-methanobenzo[f]benzo[4,5]imidazo[1,2-a][1,4]diazocin-11-yl)ethynyl)-3-methylazetidin-1-yl)-2,2-dimethyl-3-oxopropanenitrile]
- IC50: 100 to 1000 nM

SMILES: [2H]C([2H])([2H])N1C(=O)c2cccc(OC(F)F)c2[C@H]2C[C@@H]1c1nc3ccc(C#CC4CCCN(C(=O)C5CC5)C4)cc3n12 (stereo partly drawn) [Example 184, (7R,14R)-11-((1-(cyclopropanecarbonyl)piperidin-3-yl)ethynyl)-1-(difluoromethoxy)-6-(methyl-d3)-6,7-dihydro-7,14-methanobenzo[f]benzo[4,5]imidazo[1,2-a][1,4]diazocin-5(14H)-one]
- IC50: < 100 nM

SMILES: [2H]C([2H])([2H])N1C(=O)c2cccc(OC(F)F)c2[C@H]2C[C@@H]1c1nc3ccc(C#CC4CCOCC4)cc3n12 [Example 48, (7R,14R)-1-(difluoromethoxy)-6-(methyl-d3)-11-((tetrahydro-2H-pyran-4-yl)ethynyl)-6,7-dihydro-7,14-methanobenzo[f]benzo[4,5]imidazo[1,2-a][1,4]diazocin-5(14H)-one]
- IC50: < 100 nM

SMILES: [2H]C([2H])([2H])N1C(=O)c2cccc(OC(F)F)c2[C@H]2C[C@@H]1c1nc3ccc(C#Cc4cnn(CCN)c4)cc3n12 [Example 15, (7R,14R)-11-((1-(2-aminoethyl)-1H-pyrazol-4-yl)ethynyl)-1-(difluoromethoxy)-6-(methyl-d3)-6,7-dihydro-7,14-methanobenzo[f]benzo[4,5]imidazo[1,2-a][1,4]diazocin-5(14H)-one]
- IC50: < 100 nM

SMILES: [2H]C([2H])([2H])N1C(=O)c2cccc(OC(F)F)c2[C@H]2C[C@@H]1c1nc3ccc(C#CC4(O)CCOCC4)cc3n12 [Example 97, (7R,14R)-1-(difluoromethoxy)-11-((4-hydroxytetrahydro-2H-pyran-4-yl)ethynyl)-6-(methyl-d3)-6,7-dihydro-7,14-methanobenzo[f]benzo[4,5]imidazo[1,2-a][1,4]diazocin-5(14H)-one]
- IC50: < 100 nM

SMILES: [2H]C([2H])([2H])N1C(=O)c2cccc(OC(F)F)c2[C@H]2C[C@@H]1c1nc3ccc(C#CCOC4CCNCC4)cc3n12 [Example 117, (7R,14R)-1-(difluoromethoxy)-6-(methyl-d3)-11-(3-(piperidin-4-yloxy)prop-1-yn-1-yl)-6,7-dihydro-7,14-methanobenzo[f]benzo[4,5]imidazo[1,2-a][1,4]diazocin-5(14H)-one]
- IC50: 100 to 1000 nM

SMILES: [2H]C([2H])([2H])N1C(=O)c2cccc(OC(F)F)c2[C@H]2C[C@@H]1c1nc3ccc(C#CCNC(=O)C4CC4)cc3n12 [Example 171, N-(3-((7R,14R)-1-(difluoromethoxy)-6-(methyl-d3)-5-oxo-5,6,7,14-tetrahydro-7,14-methanobenzo[f]benzo[4,5]imidazo[1,2-a][1,4]diazocin-11-yl)prop-2-yn-1-yl)cyclopropanecarboxamide]
- IC50: < 100 nM
